Holding throughout (format): in vivo
In data set [1] the test system is Zea mays. Description: Greenhouse post-emergence herbicidal activity on crop ZEAMX (corn, maize). Also on record: key: 0 = no damage/normal growth, 100 = no emergence or complete destruction. The following applies: ZEAMX (corn, crop), scale 0 to 100. The method in brief: (§1)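 Post-emergence greenhouse test: plants in loamy sand (~3.0% humus) grown to 3-15 cm, then treated with active ingredient suspended or emulsified in water. Kept at 10-25° C or 20-35° C depending on species for 2 to 4 weeks; damage scored 0 (none) to 100 (complete destruction of aerial parts).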

The test system of data set [2] is Eriochloa villosa. Description: Greenhouse post-emergence herbicidal activity, ERBVI. The following applies: scale 0 to 100. From the text: (§2) The culture containers used were plastic flowerpots containing loamy sand with approximately 3.0% of humus as the substrate. The seeds of the test plants were sown separately for each species.
(§3) For the post-emergence treatment, the test plants were first grown to a height of 3 to 15 cm, depending on the plant habit, and only then treated with the active ingredients which had been suspended or emulsified in water. For this purpose, the test plants were either sown directly and grown in the same containers, or they were first grown separately as seedlings and transplanted into the test containers a few days prior to treatment.
(§4) Depending on the species, the plants were kept at 10-25° C. or 20-35° C., respectively.
(§5) The test period extended over 2 to 4 weeks. During this time, the plants were tended, and their response to the individual treatments was evaluated.
(§6) Evaluation was carried out using a scale from 0 to 100. 100 means no emergence of the plants, or complete destruction of at least the aerial moieties, and 0 means no damage, or normal course of growth. A good herbicidal activity is given at values of at least 70 and a very good herbicidal activity is given at values of at least 85.

The subject of data set [3] is Echinocloa crus-galli. In words: Greenhouse post-emergence herbicidal activity, ECHCG. The following applies: Echinochloa crus-galli. In a few lines:
as §1

In data set [4] the test system is Chenopodium album. In words: Greenhouse post-emergence herbicidal activity, CHEAL. The following applies: scale 0 to 100; for pest or weed control at 125 g/ha: 0.125 kg/ha; for pest or weed control at 63 g/ha: 0.063 kg/ha; for pest or weed control at 31 g/ha: 0.031 kg/ha. The method in brief: as §1
Data set [5] has as its system Oryza sativa. In words: Greenhouse post-emergence herbicidal activity on crop ORYSA (rice). The following applies: ORYSA (rice, crop), scale 0 to 100. The method in brief: as §1
Data set [6] deals with Amaranthus retroflexus. In words: Greenhouse post-emergence herbicidal activity, AMARE. The following applies: for pest or weed control at 63 g/ha: 0.063 kg/ha; for pest or weed control at 125 g/ha: 0.125 kg/ha; for pest or weed control at 31 g/ha: 0.031 kg/ha. In a few lines:
as §1

The subject of data set [7] is Abutilon theophrasti. In words: Greenhouse post-emergence herbicidal activity, ABUTH. In a few lines:
as §1

Data set [8] concerns Veronica arvensis. In words: Greenhouse post-emergence herbicidal activity, VERAR. Conditions: 0.031 kg/ha, scale 0 to 100.
Source text: as §2, §3, §4, §5, §6

For data set [9], the system named is Brachiaria plantaginea. Description: Greenhouse post-emergence herbicidal activity, BRAPL. The following applies: scale 0 to 100.
Source text: as §2, §3, §4, §5, §6

Data set [10] concerns Cirsium arvense. Description: Greenhouse post-emergence herbicidal activity, CIRAR. Conditions: for pest or weed control at 31 g/ha: 0.031 kg/ha. In a few lines: as §1
Data set [11] deals with Stellaria media. Description: Greenhouse post-emergence herbicidal activity, STEME. The following applies: scale 0 to 100.
Source text: as §2, §3, §4, §5, §6

For data set [12], the system named is Brachiaria decumbens. In words: Greenhouse post-emergence herbicidal activity, BRADC. Conditions: 0.125 kg/ha, scale 0 to 100.
Source text: as §2, §3, §4, §5, §6

The test system of data set [13] is Capsella bursa-pastoris. Description: Greenhouse post-emergence herbicidal activity, CAPBP. The following applies: scale 0 to 100.
Source text: as §2, §3, §4, §5, §6

Data set [14] has as its system Polygonum persicaria. Description: Greenhouse post-emergence herbicidal activity, POLPE. Conditions: 0.031 kg/ha, scale 0 to 100.
Source text: as §2, §3, §4, §5, §6

Data set [15] has as its system Kochia scoparia. In words: Greenhouse post-emergence herbicidal activity, KCHSC. Conditions: scale 0 to 100.
Source text: as §2, §3, §4, §5, §6

Data set [16] deals with Polygonum aviculare. In words: Greenhouse post-emergence herbicidal activity, POLAV. The following applies: 0.25 kg/ha, scale 0 to 100.
Source text: as §2, §3, §4, §5, §6

In data set [17] the test system is Setaria faberi. Description: Greenhouse post-emergence herbicidal activity, SETFA. Conditions: scale 0 to 100.
Source text: as §2, §3, §4, §5, §6

The test system of data set [18] is Ambrosia artemisiifolia. Description: Greenhouse post-emergence herbicidal activity, AMBEL. Conditions: 0.25 kg/ha, scale 0 to 100.
Source text: as §2, §3, §4, §5, §6

Data set [19] has as its system Ipomoea hederacea. Description: Greenhouse post-emergence herbicidal activity, IPOHE. The following applies: 0.125 kg/ha, scale 0 to 100.
Source text: as §2, §3, §4, §5, §6

Data set [20] deals with Sesbania herbacea. In words: Greenhouse post-emergence herbicidal activity, SEBEX. Conditions: 0.125 kg/ha, scale 0 to 100.
Source text: as §2, §3, §4, §5, §6

Data set [21] has as its system Commelina benghalensis. Description: Greenhouse post-emergence herbicidal activity, COMBE. Conditions: 0.125 kg/ha, scale 0 to 100.
Source text: as §2, §3, §4, §5, §6

Data set [22] deals with Setaria viridis. Description: Greenhouse post-emergence herbicidal activity, SETVI. The following applies: 2 kg/ha, scale 0 to 100.
Source text: as §2, §3, §4, §5, §6

Data set [23] concerns Brachiaria deflexa. Description: Greenhouse post-emergence herbicidal activity, BRADE. Conditions: 0.031 kg/ha, scale 0 to 100.
Source text: as §2, §3, §4, §5, §6

The mark [24] stands for this setting: ECHCG, 2 kg/ha, scale 0 to 100, read-out: Herbicidal activity.
Where [25] appears, read: AMARE, 2 kg/ha, scale 0 to 100, read-out: Herbicidal activity.
The mark [26] stands for this setting: ABUTH, 2 kg/ha, scale 0 to 100, read-out: Herbicidal activity.
[27] abbreviates: CIRAR, 0.063 kg/ha, scale 0 to 100, read-out: Herbicidal activity.

The source of these data is patent publication US10023590B2, “Substituted pyridine compounds having herbicidal activity” (BASF SE, priority 2014, dated 2018).

Structures are written as SMILES. Like-named read-outs stand apart in the source and are kept apart here.

Turning to `Cc1c(C2=C(O)c3ncccc3CS2(=O)=O)ccc(Cl)c1N(C)S(C)(=O)=O` [I-26, N-[6-chloro-3-(8-hydroxy-6,6-dioxo-5H-thiopyrano[4,3-b]pyridin-7-yl)-2-methyl-phenyl]-N-methyl-methanesulfonamide], the Herbicidal activity in [1] (0.063 kg/ha) was 15; in [1] (0.125 kg/ha), 15; in data set [2] (0.031 kg/ha), 90; in data set [2] (0.063 kg/ha), 95; in data set [2] (0.125 kg/ha), 95; in data set [5] (0.125 kg/ha) it was 45. The Herbicidal activity in [8], in data set [9] (0.031 kg/ha) and in data set [9] (0.063 kg/ha) was 90 in each case. The pest or weed control at 2000 g/ha in data set [3] (setting [24]), in data set [6] (setting [25]) and in data set [7] (setting [26]) was 100% throughout. Further, the pest or weed control at 125 g/ha was found to be 98% in data set [4] and 90% in [6] (AMARE, scale 0 to 100). Further, in data set [6] (AMARE, scale 0 to 100), the pest or weed control at 63 g/ha was determined as 85%.

Turning to `CN(c1c(Cl)ccc(C2=C(O)c3ncccc3C(C)(C)S2(=O)=O)c1Cl)S(C)(=O)=O` [I-2, N-[2,6-dichloro-3-(8-hydroxy-5,5-dimethyl-6,6-dioxo-thiopyrano[4,3-b]pyridin-7-yl)phenyl]-N-methyl-methanesulfonamide], in [10] (read-out: Herbicidal activity), the pest or weed control at 63 g/ha came to 98%. Further, the Herbicidal activity in data set [1] (0.063 kg/ha) turned out to be 5; in data set [11] (0.031 kg/ha), 100; in data set [11] (0.063 kg/ha), 100; in data set [12] it was 100; in data set [13] (0.125 kg/ha), 100; in data set [14], 98. Moreover, the Herbicidal activity in data set [15] (0.031 kg/ha) came to 95; in data set [15] (0.063 kg/ha) it was 98; in [15] (0.125 kg/ha), 100. Further, the pest or weed control at 2000 g/ha in data set [3] (read-out: Herbicidal activity), in [6] (read-out: Herbicidal activity) and in data set [7] (read-out: Herbicidal activity) was 100% in each case.

As to `CC1(C)c2cccnc2C(O)=C(c2ccc(Cl)c(N(C3CC3)S(C)(=O)=O)c2Cl)S1(=O)=O` [I-25, N-cyclopropyl-N-[2,6-dichloro-3-(8-hydroxy-5,5-dimethyl-6,6-dioxo-thiopyrano[4,3-b]pyridin-7-yl)phenyl]methanesulfonamide], the pest or weed control at 31 g/ha in data set [10] (CIRAR, scale 0 to 100) was determined as 95%; in data set [6] (AMARE, scale 0 to 100), 95%. Further, the Herbicidal activity in data set [1] (0.031 kg/ha) was 5; in [1] (0.125 kg/ha), 20; in data set [16] it was 100; in data set [13] (0.125 kg/ha) it was 95; in data set [5] (0.063 kg/ha) it was 35; in data set [5] (0.25 kg/ha) it was 35. Besides, the Herbicidal activity is given as 95 in data set [17] (0.031 kg/ha), 95 in data set [17] (0.063 kg/ha), 95 in data set [17] (0.125 kg/ha) and 100 in [18]. Moreover, the pest or weed control at 63 g/ha came out at 95% in data set [4] and 98% in [6] (AMARE, scale 0 to 100). Also, the pest or weed control at 125 g/ha in data set [6] (AMARE, scale 0 to 100) turned out to be 98%. In data set [6] (AMARE, 0.25 kg/ha, scale 0 to 100), this molecule gave a pest or weed control at 250 g/ha of 98%.

In the case of `CN(C)S(=O)(=O)Oc1c(Cl)ccc(C2=C(O)c3ncccc3C(C)(C)S2(=O)=O)c1Cl` [I-23], the pest or weed control at 31 g/ha is 75% in data set [10] (CIRAR, scale 0 to 100) and 85% in data set [4]. The pest or weed control at 63 g/ha turned out to be 80% in [10] (setting [27]); 95% in [4]; 70% in data set [6] (AMARE, scale 0 to 100). Moreover, the Herbicidal activity was 0 in [1] (0.031 kg/ha); 0 in [1] (0.063 kg/ha); 15 in data set [1] (0.125 kg/ha); 95 in [19]; 0 in [5] (0.031 kg/ha); 0 in [5] (0.063 kg/ha). The Herbicidal activity was determined as 0 in data set [5] (0.125 kg/ha) and 98 in data set [20]. Further, the pest or weed control at 1000 g/ha in [3] (ECHCG, 1 kg/ha, scale 0 to 100) was 95%; in data set [6] (AMARE, 1 kg/ha, scale 0 to 100) it was 100%; in data set [7] (ABUTH, 1 kg/ha, scale 0 to 100), 80%. The pest or weed control at 125 g/ha in data set [4] was determined as 98%.

For `CC(C)N(c1c(Cl)ccc(C2=C(O)c3ncccc3C(C)(C)S2(=O)=O)c1Cl)S(C)(=O)=O` [I-11, N-[2,6-dichloro-3-(8-hydroxy-5,5-dimethyl-6,6-dioxo-thiopyrano[4,3-b]pyridin-7-yl)phenyl]-N-isopropyl-methanesulfonamide], the pest or weed control at 31 g/ha in data set [10] (CIRAR, scale 0 to 100) is 90%; in data set [4], 98%. Further, the figures for the pest or weed control at 63 g/ha in data set [10] (setting [27]) and in data set [4] were 95% and 98%, respectively. Also, the Herbicidal activity in [1] (0.031 kg/ha) amounted to 0; in [21], 100; in data set [13] (0.031 kg/ha) it was 98; in [13] (0.063 kg/ha), 100; in data set [13] (0.125 kg/ha), 100; in data set [5] (0.125 kg/ha), 20. Moreover, the Herbicidal activity in data set [22] turned out to be 100. For the same molecule, the pest or weed control at 2000 g/ha in data set [3] (setting [24]) and in data set [6] (setting [25]) was 100% in each case. The molecule also came in with a pest or weed control at 125 g/ha in data set [4] of 100%.

`CCN(c1c(Cl)ccc(C2=C(O)c3ncccc3C(C)(C)S2(=O)=O)c1Cl)S(C)(=O)=O` [I-9, N-[2,6-dichloro-3-(8-hydroxy-5,5-dimethyl-6,6-dioxo-thiopyrano[4,3-b]pyridin-7-yl)phenyl]-N-ethyl-methanesulfonamide]: the pest or weed control at 125 g/ha was determined as 100% in data set [10] (CIRAR, 0.125 kg/ha, scale 0 to 100); 98% in data set [3] (ECHCG, 0.125 kg/ha, scale 0 to 100); 98% in data set [6] (AMARE, scale 0 to 100). For the same molecule, the Herbicidal activity came to 5 in data set [1] (0.031 kg/ha); 10 in data set [1] (0.063 kg/ha); 50 in data set [1] (0.125 kg/ha); 98 in data set [2] (0.063 kg/ha); 100 in data set [23]; 100 in [22]. The molecule further registered a Herbicidal activity in data set [15] (0.063 kg/ha) of 100. Also, the pest or weed control at 2000 g/ha in data set [3] (setting [24]) is 100%; in data set [7] (setting [26]), 98%. The pest or weed control at 31 g/ha in data set [4] stood at 98%; in [6] (AMARE, scale 0 to 100) it was 98%. Besides, the pest or weed control at 63 g/ha in [6] (AMARE, scale 0 to 100) worked out at 98%.
